Data: paper PMC5218480 (PLoS ONE, 2017)

Tested on: MV-4-11 cells
Assay: Gene expression microarray analysis (Affymetrix PrimeView) and GSEA
Assay type: cell-based, human
Parameters: RFU PODN (11730768_x_at) / Fold change /veh PODN (11730768_x_at) / RFU LINC00158 (11744669_a_at) / Fold change /veh LINC00158 (11744669_a_at) / RFU DUSP10 (11751237_a_at) / Fold change /veh DUSP10 (11751237_a_at) / RFU ID3 (11757404_x_at) / Fold change /veh ID3 (11757404_x_at) / RFU PLEKHG5 (11737974_s_at) / Fold change /veh PLEKHG5 (11737974_s_at) / RFU LRRC4B (11730491_at) / Fold change /veh LRRC4B (11730491_at) / RFU GIMAP4 (11747438_a_at) / Fold change /veh GIMAP4 (11747438_a_at) / RFU KRT8 (11758183_x_at) / Fold change /veh KRT8 (11758183_x_at) / RFU CNN1 (11734310_a_at) / Fold change /veh CNN1 (11734310_a_at) / RFU VPS37D (11726825_at) / Fold change /veh VPS37D (11726825_at) / RFU C10orf10 (11716522_x_at) / Fold change /veh C10orf10 (11716522_x_at) / RFU KIR2DL2 /// KIR2DL4 /// KIR2DL5A /// KIR2DL5B /// KIR2DS1 /// KIR2DS2 /// KIR2DS3 /// KIR2DS4 /// KIR3DL3 /// KIR3DL3 /// KIR3DS1 (11738374_at) / Fold change /veh KIR2DL2 /// KIR2DL4 /// KIR2DL5A /// KIR2DL5B /// KIR2DS1 /// KIR2DS2 /// KIR2DS3 /// KIR2DS4 /// KIR3DL3 /// KIR3DL3 /// KIR3DS1 (11738374_at) / RFU C1QL1 (11718748_at) / Fold change /veh C1QL1 (11718748_at) / RFU TMPRSS4 (11747572_a_at) / Fold change /veh TMPRSS4 (11747572_a_at) / RFU HAMP (11756126_x_at) / Fold change /veh HAMP (11756126_x_at) / RFU RNFT2 (11725882_a_at) / Fold change /veh RNFT2 (11725882_a_at) / RFU NR4A2 (11747474_a_at) / Fold change /veh NR4A2 (11747474_a_at) / RFU ABCC12 (11746883_a_at) / Fold change /veh ABCC12 (11746883_a_at) / RFU TMEM136 (11760407_x_at) / Fold change /veh TMEM136 (11760407_x_at) / RFU CLDN22 /// WWC2 (11732394_at) / Fold change /veh CLDN22 /// WWC2 (11732394_at) / RFU HLA-DPB1 (11760878_x_at) / Fold change /veh HLA-DPB1 (11760878_x_at) / RFU SPINT1 (11716480_a_at) / Fold change /veh SPINT1 (11716480_a_at) / RFU GAP43 (11754022_s_at) / Fold change /veh GAP43 (11754022_s_at) / RFU A4GNT (11735810_at) / Fold change /veh A4GNT (11735810_at) / RFU PRB3 (11715151_x_at) / Fold change /veh PRB3 (11715151_x_at) / RFU TUBB4B (11761932_at) / Fold change /veh TUBB4B (11761932_at) / RFU CAPN14 (11732068_a_at) / Fold change /veh CAPN14 (11732068_a_at) / RFU TMCC2 (11721928_a_at) / Fold change /veh TMCC2 (11721928_a_at) / RFU IRGQ (11745062_a_at) / Fold change /veh IRGQ (11745062_a_at) / RFU FAM174B (11720279_a_at) / Fold change /veh FAM174B (11720279_a_at) / RFU TMPRSS4 (11748680_a_at) / Fold change /veh TMPRSS4 (11748680_a_at) / RFU FAM212B (11763350_a_at) / Fold change /veh FAM212B (11763350_a_at) / RFU PLEKHG5 (11743358_a_at) / Fold change /veh PLEKHG5 (11743358_a_at) / RFU ZSCAN30 (11745921_a_at) / Fold change /veh ZSCAN30 (11745921_a_at) / RFU CMKLR1 (11741424_a_at) / Fold change /veh CMKLR1 (11741424_a_at) / RFU LOC101060620 /// MAPK8IP1 (11723275_at) / Fold change /veh LOC101060620 /// MAPK8IP1 (11723275_at) / RFU SPTSSB (11747773_x_at) / Fold change /veh SPTSSB (11747773_x_at) / RFU PRSS12 (11739890_at) / Fold change /veh PRSS12 (11739890_at) / RFU BIN1 (11741810_x_at) / Fold change /veh BIN1 (11741810_x_at) / RFU WNT11 (11732464_a_at) / Fold change /veh WNT11 (11732464_a_at) / RFU C10orf10 (11716521_a_at) / Fold change /veh C10orf10 (11716521_a_at) / RFU C5orf56 (11738089_at) / Fold change /veh C5orf56 (11738089_at) / RFU CYB561 (11721691_x_at) / Fold change /veh CYB561 (11721691_x_at) / RFU ANKRD19P (11752326_a_at) / Fold change /veh ANKRD19P (11752326_a_at) / RFU OR2T12 /// OR2T33 /// OR2T8 (11738714_s_at) / Fold change /veh OR2T12 /// OR2T33 /// OR2T8 (11738714_s_at) / RFU VCAN (11748164_a_at) / Fold change /veh VCAN (11748164_a_at) / RFU JSRP1 (11732532_at) / Fold change /veh JSRP1 (11732532_at) / RFU KRTAP10-11 (11738290_x_at) / Fold change /veh KRTAP10-11 (11738290_x_at) / RFU MYO3A (11730013_a_at) / Fold change /veh MYO3A (11730013_a_at) / RFU EBF3 (11725865_a_at) / Fold change /veh EBF3 (11725865_a_at) / RFU CAMK2N1 (11719241_x_at) / Fold change /veh CAMK2N1 (11719241_x_at) / RFU C5orf56 (11738088_a_at) / Fold change /veh C5orf56 (11738088_a_at) / RFU OLFML3 (11715873_a_at) / Fold change /veh OLFML3 (11715873_a_at) / RFU LOC100653217 /// NTM (11731650_a_at) / Fold change /veh LOC100653217 /// NTM (11731650_a_at) / RFU MAPK11 (11762145_a_at) / Fold change /veh MAPK11 (11762145_a_at) / RFU FIZ1 (11724087_x_at) / Fold change /veh FIZ1 (11724087_x_at) / RFU OASL (11726364_x_at) / Fold change /veh OASL (11726364_x_at) / RFU SOX15 (11748057_x_at) / Fold change /veh SOX15 (11748057_x_at) / RFU CD79A (11719716_a_at) / Fold change /veh CD79A (11719716_a_at) / RFU HIST1H1D (11736915_at) / Fold change /veh HIST1H1D (11736915_at) / RFU CASKIN2 (11723855_a_at) / Fold change /veh CASKIN2 (11723855_a_at) / RFU LOC730098 (11760151_x_at) / Fold change /veh LOC730098 (11760151_x_at) / RFU OR4N2 (11742367_at) / Fold change /veh OR4N2 (11742367_at) / RFU PRRT2 (11749266_a_at) / Fold change /veh PRRT2 (11749266_a_at) / RFU SNX32 (11753110_a_at) / Fold change /veh SNX32 (11753110_a_at) / RFU CDHR5 (11726645_a_at) / Fold change /veh CDHR5 (11726645_a_at) / RFU RCAN1 (11760418_a_at) / Fold change /veh RCAN1 (11760418_a_at) / RFU FAM167A (11723789_a_at) / Fold change /veh FAM167A (11723789_a_at) / RFU FAM26E (11764081_at) / Fold change /veh FAM26E (11764081_at) / RFU ISYNA1 (11749810_s_at) / Fold change /veh ISYNA1 (11749810_s_at) / RFU ACY1 (11761880_at) / Fold change /veh ACY1 (11761880_at) / RFU 11764098_at / Fold change /veh 11764098_at / RFU SAMD14 (11745864_x_at) / Fold change /veh SAMD14 (11745864_x_at) / RFU NPB (11741838_a_at) / Fold change /veh NPB (11741838_a_at) / RFU TMPRSS6 (11731388_a_at) / Fold change /veh TMPRSS6 (11731388_a_at) / RFU KRTAP10-2 (11738614_at) / Fold change /veh KRTAP10-2 (11738614_at) / RFU ARHGAP8 /// PRR5-ARHGAP8 (11727945_x_at) / Fold change /veh ARHGAP8 /// PRR5-ARHGAP8 (11727945_x_at) / RFU KRTAP5-7 /// NADSYN1 (11734609_at) / Fold change /veh KRTAP5-7 /// NADSYN1 (11734609_at) / RFU RASL12 (11751679_a_at) / Fold change /veh RASL12 (11751679_a_at) / RFU CDKN2B (11736163_a_at) / Fold change /veh CDKN2B (11736163_a_at) / RFU PRF1 (11729649_at) / Fold change /veh PRF1 (11729649_at) / RFU, ZNF638 /// ZNF638-IT1 / Fold change vs veh, ZNF638 /// ZNF638-IT1 / RFU, PANK3 / Fold change vs veh, PANK3 / RFU, SH3YL1 / Fold change vs veh, SH3YL1 / RFU, ZEB2 / Fold change vs veh, ZEB2 / RFU, NRIP1 / Fold change vs veh, NRIP1 / RFU, PTTG1IP / Fold change vs veh, PTTG1IP / RFU, CAPN2 / Fold change vs veh, CAPN2 / RFU, MED14 / Fold change vs veh, MED14 / RFU, SNORA58 / Fold change vs veh, SNORA58 / RFU, C1orf63 / Fold change vs veh, C1orf63 / RFU, LRRFIP1 / Fold change vs veh, LRRFIP1 / RFU, NDUFAF7 / Fold change vs veh, NDUFAF7 / RFU, SLC12A2 / Fold change vs veh, SLC12A2 / RFU, IBTK / Fold change vs veh, IBTK / RFU, ESF1 / Fold change vs veh, ESF1 / Fold change vs veh, TMEM50B / RFU, TAOK1 / Fold change vs veh, TAOK1 / RFU, ACBD3 / Fold change vs veh, ACBD3 / RFU, TMA16 / Fold change vs veh, TMA16 / RFU, RWDD3 / Fold change vs veh, RWDD3 / RFU, BCAT1 / Fold change vs veh, BCAT1 / RFU, EDEM3 / Fold change vs veh, EDEM3 / RFU, TMEM33 / Fold change vs veh, TMEM33 / RFU, WDR75 / Fold change vs veh, WDR75 / RFU, AHCTF1 / Fold change vs veh, AHCTF1 / RFU, TFRC / Fold change vs veh, TFRC / RFU, ZDHHC17 / Fold change vs veh, ZDHHC17 / RFU, NOM1 / Fold change vs veh, NOM1 / RFU, ARL8B / Fold change vs veh, ARL8B / RFU, ZBTB11 / Fold change vs veh, ZBTB11 / RFU, TAMM41 / Fold change vs veh, TAMM41 / RFU, KIAA1704 /// LOC100996395 / Fold change vs veh, KIAA1704 /// LOC100996395 / RFU, ING1 / Fold change vs veh, ING1 / RFU, TRMT61B / Fold change vs veh, TRMT61B / RFU, FUBP3 / Fold change vs veh, FUBP3 / RFU, TP53 / Fold change vs veh, TP53 / RFU, TNKS2 / Fold change vs veh, TNKS2 / RFU, ZFP14 / Fold change vs veh, ZFP14 / RFU, ACTR2 / Fold change vs veh, ACTR2 / RFU, PPP3R1 / Fold change vs veh, PPP3R1 / RFU, PIK3R1 / Fold change vs veh, PIK3R1 / RFU, HNRNPA1 / Fold change vs veh, HNRNPA1 / RFU, RNF170 / Fold change vs veh, RNF170 / RFU, ZNF28 / Fold change vs veh, ZNF28 / RFU, RNGTT / Fold change vs veh, RNGTT / RFU, OGT / Fold change vs veh, OGT / RFU, BRD1 / Fold change vs veh, BRD1 / RFU, MARS / Fold change vs veh, MARS / RFU, ZNF655 / Fold change vs veh, ZNF655 / RFU, FAHD1 / Fold change vs veh, FAHD1 / RFU, BDP1 / Fold change vs veh, BDP1 / RFU, LRRCC1 / Fold change vs veh, LRRCC1 / RFU, ARID1A / Fold change vs veh, ARID1A / RFU, ZNF146 / Fold change vs veh, ZNF146 / RFU, ZNF330 / Fold change vs veh, ZNF330 / RFU, GPN3 / Fold change vs veh, GPN3 / RFU, C9orf123 / Fold change vs veh, C9orf123 / RFU, N4BP2L2 / Fold change vs veh, N4BP2L2 / RFU, ARFIP1 / Fold change vs veh, ARFIP1 / RFU, FAM179B / Fold change vs veh, FAM179B / RFU, BCL10 / Fold change vs veh, BCL10 / RFU, UHRF1BP1L / Fold change vs veh, UHRF1BP1L / RFU, BET1 / Fold change vs veh, BET1 / RFU, CNOT2 / Fold change vs veh, CNOT2 / RFU, ZNF268 / Fold change vs veh, ZNF268 / Fold change vs veh, ZNF507 / RFU, DGCR2 / Fold change vs veh, DGCR2 / RFU, WDSUB1 / Fold change vs veh, WDSUB1 / Fold change vs veh, HSP90B1 /// MIR3652 / RFU, ADSS / Fold change vs veh, ADSS / RFU, GK / Fold change vs veh, GK / RFU, ZNF148 / Fold change vs veh, ZNF148 / RFU, TAF9 / Fold change vs veh, TAF9 / RFU, SLC1A5 / Fold change vs veh, SLC1A5 / RFU, SLMO2 / Fold change vs veh, SLMO2 / RFU, ABCC4 / Fold change vs veh, ABCC4 / RFU, LOC101060439 /// RAP1B / Fold change vs veh, LOC101060439 /// RAP1B / RFU, RFX7 / Fold change vs veh, RFX7 / RFU, GTPBP10 / Fold change vs veh, GTPBP10 / RFU, CNEP1R1 / Fold change vs veh, CNEP1R1 / RFU, BIVM-ERCC5 /// ERCC5 / Fold change vs veh, BIVM-ERCC5 /// ERCC5 / RFU, ILF3 / Fold change vs veh, ILF3 / RFU 11762660_at / Fold change /veh 11762660_at / RFU VCAN (11757783_s_at) / Fold change /veh VCAN (11757783_s_at) / RFU DDX43 (11728927_at) / Fold change /veh DDX43 (11728927_at) / RFU KRT8 (11758188_x_at) / Fold change /veh KRT8 (11758188_x_at) / RFU NKD1 (11759106_at) / Fold change /veh NKD1 (11759106_at) / RFU SRD5A1 (11742802_a_at) / Fold change /veh SRD5A1 (11742802_a_at) / RFU TPSAB1 /// TPSB2 (11721975_s_at) / Fold change /veh TPSAB1 /// TPSB2 (11721975_s_at) / RFU GSTM3 (11746129_a_at) / Fold change /veh GSTM3 (11746129_a_at) / RFU IL23R (11737362_x_at) / Fold change /veh IL23R (11737362_x_at) / RFU TMEM51 (11727254_a_at) / Fold change /veh TMEM51 (11727254_a_at) / RFU PIWIL2 (11732686_x_at) / Fold change /veh PIWIL2 (11732686_x_at) / RFU ORM1 (11744905_x_at) / Fold change /veh ORM1 (11744905_x_at) / RFU CCDC152 (11743942_at) / Fold change /veh CCDC152 (11743942_at) / RFU ECM1 (11717891_a_at) / Fold change /veh ECM1 (11717891_a_at) / RFU IL23R (11748794_a_at) / Fold change /veh IL23R (11748794_a_at) / RFU TNFAIP8L3 (11732012_x_at) / Fold change /veh TNFAIP8L3 (11732012_x_at) / RFU MBOAT4 (11741988_at) / Fold change /veh MBOAT4 (11741988_at) / RFU 11764193_at / Fold change /veh 11764193_at / RFU TMEM53 (11763286_at) / Fold change /veh TMEM53 (11763286_at) / RFU MAGEB2 (11727129_at) / Fold change /veh MAGEB2 (11727129_at) / RFU TMEM200A (11744735_a_at) / Fold change /veh TMEM200A (11744735_a_at) / RFU CCDC152 (11751479_a_at) / Fold change /veh CCDC152 (11751479_a_at) / RFU FAM211A (11726209_a_at) / Fold change /veh FAM211A (11726209_a_at) / RFU RGS16 (11746705_a_at) / Fold change /veh RGS16 (11746705_a_at) / RFU VCAN (11755009_s_at) / Fold change /veh VCAN (11755009_s_at) / RFU RHOB (11743442_s_at) / Fold change /veh RHOB (11743442_s_at) / RFU RGS16 (11720943_a_at) / Fold change /veh RGS16 (11720943_a_at) / RFU RGS16 (11720944_at) / Fold change /veh RGS16 (11720944_at) / RFU, VPS4B / Fold change vs veh, VPS4B / RFU, CREB1 / Fold change vs veh, CREB1 / RFU, DNAJC13 / Fold change vs veh, DNAJC13 / RFU, GNAQ / Fold change vs veh, GNAQ / RFU, CDK5R1 / Fold change vs veh, CDK5R1 / RFU, ZRANB3 / Fold change vs veh, ZRANB3 / RFU, CUL4A / Fold change vs veh, CUL4A / RFU, CCNY / Fold change vs veh, CCNY / RFU, UFL1 / Fold change vs veh, UFL1 / RFU, COG3 / Fold change vs veh, COG3 / RFU, DIAPH2 / Fold change vs veh, DIAPH2 / RFU, SKA2 / Fold change vs veh, SKA2 / RFU, AFF3 / Fold change vs veh, AFF3 / RFU, LMF1 / Fold change vs veh, LMF1 / RFU, IPO11 / Fold change vs veh, IPO11 / RFU, DFFB / Fold change vs veh, DFFB / RFU, FOXP1 / Fold change vs veh, FOXP1 / RFU, CARD8 / Fold change vs veh, CARD8 / RFU, STRN3 / Fold change vs veh, STRN3 / RFU, ADK / Fold change vs veh, ADK / RFU, RASSF2 / Fold change vs veh, RASSF2 / RFU, WIPF1 / Fold change vs veh, WIPF1 / RFU, LARP1B / Fold change vs veh, LARP1B / RFU, RASA1 / Fold change vs veh, RASA1 / RFU, RB1 / Fold change vs veh, RB1 / RFU, PPFIA1 / Fold change vs veh, PPFIA1 / RFU, MAT2A / Fold change vs veh, MAT2A / RFU, CCT5 / Fold change vs veh, CCT5 / RFU, WDR92 / Fold change vs veh, WDR92 / RFU, CUX1 / Fold change vs veh, CUX1 / RFU, TTC7A / Fold change vs veh, TTC7A / RFU, TMEM135 / Fold change vs veh, TMEM135 / RFU, DEPTOR / Fold change vs veh, DEPTOR / RFU, CPM / Fold change vs veh, CPM / RFU, DNAJB6 / Fold change vs veh, DNAJB6 / RFU, CACNA2D3 / Fold change vs veh, CACNA2D3 / RFU, DTX4 / Fold change vs veh, DTX4 / RFU, TFCP2 / Fold change vs veh, TFCP2 / RFU, GMCL1 /// GMCL1P1 / Fold change vs veh, GMCL1 /// GMCL1P1 / RFU, AEBP2 / Fold change vs veh, AEBP2 / RFU, SNHG1 /// SNORD22 /// SNORD25 /// SNORD26 /// SNORD27 /// SNORD28 /// SNORD29 /// SNORD31 / Fold change vs veh, SNHG1 /// SNORD22 /// SNORD25 /// SNORD26 /// SNORD27 /// SNORD28 /// SNORD29 /// SNORD31 / Fold change (Aza/veh), C12orf56 (ProbeSet 11735607_a_at) / Fold change (ACY-1035/veh), C12orf56 (ProbeSet 11735607_a_at) / Fold change (Aza/veh), FGFR1OP (ProbeSet 11751329_s_at) / Fold change (ACY-1035/veh), FGFR1OP (ProbeSet 11751329_s_at) / Fold change (Aza/veh), VPS36 (ProbeSet 11739960_a_at) / Fold change (ACY-1035/veh), VPS36 (ProbeSet 11739960_a_at) / RFU SYPL1 (11715823_x_at) / Fold change /veh SYPL1 (11715823_x_at) / RFU IGFBP7 (11715501_s_at) / Fold change /veh IGFBP7 (11715501_s_at) / RFU REEP3 (11722064_at) / Fold change /veh REEP3 (11722064_at) / RFU IGLL1 (11728026_x_at) / Fold change /veh IGLL1 (11728026_x_at): dose or concentration left out as unconfirmed
Settings: ProbeSet 11755070_a_at; LIST D

Nc1ccc(-c2cccs2)cc1NC(=O)c1ccc2c(c1)cc(C1CC1)n2CCN1CCOCC1 [ACY-1035]
Fold change vs veh, CARD8: 0.85
